Reference: US20250002476A1, “AZOLE COMPOUNDS FOR CONTROLLING INVERTEBRATE PESTS” (FMC Corporation, priority 2021, published 2025)

How the values were obtained:
Assay type in all cases: in vivo
[1] = tested on: Corn Planthopper (Peregrinus maidis (Ashmead)); experiment: Test B: control of Corn Planthopper on sprayed corn plant; settings: 144 h, nymphs, 6 days; for mortality at 50 ppm: sprayed at 50 ppm; for mortality at 10 ppm: sprayed at 10 ppm; for mortality at 250 ppm: sprayed at 250 ppm
Procedure: (§1) Test compounds were formulated using a solution containing 10% acetone, 90% water and 300 ppm Activator 90@ non-ionic surfactant (Loveland Products, Loveland, Colorado, USA). The formulated compounds were applied in 1 mL of liquid through an atomized nozzle positioned 1.27 cm (0.5 inches) above the top of each test unit. Test compounds were sprayed at the rates indicated, and each test was replicated three times.
For evaluating control of Corn Planthopper (Peregrinus maidis (Ashmead)) through contact and/or systemic means, the test unit consisted of a small open container with a 3-4-day-old corn (maize) plant inside. White sand was added to the top of the soil prior to application of the test compound.
Test compounds were formulated and sprayed at 250, 50 and 10 ppm. After spraying of the formulated test compound, the test units were allowed to dry for 1 h before they were post-infested with ˜15-20 nymphs (18-to-21-day-old). A black, screened cap was placed on the top of each test unit, and the test units were held for 6 days in a growth chamber at 22-24° C. and 50-70% relative humidity. Each test unit was then visually assessed for insect mortality.

[2] = tested on: Green Peach Aphid (Myzus persicae (Sulzer)); experiment: Test D: control of Green Peach Aphid on sprayed radish plant; settings: 144 h, pre-infested, 6 days; for mortality at 250 ppm: sprayed at 250 ppm; for mortality at 50 ppm: sprayed at 50 ppm
Procedure: as §1
For evaluating control of Green Peach Aphid (Myzus persicae (Sulzer)) through contact and/or systemic means, the test unit consisted of a small open container with a 12-15-day-old radish plant inside. Prior to compound application, each test unit was pre-infested by placing on a leaf of the test plant 30-40 aphids on a piece of leaf excised from a culture plant (cut-leaf method). The aphids moved onto the test plant as the leaf piece desiccated. After pre-infestation, the soil of the test unit was covered with a layer of sand.
Test compounds were formulated and sprayed at 250 and 50 ppm. After spraying of the formulated test compound, each test unit was allowed to dry for 1 hour and then a black, screened cap was placed on top. The test units were held for 6 days in a growth chamber at 19-21° C. and 50-70% relative humidity. Each test unit was then visually assessed for insect mortality.

[3] = tested on: cotton melon aphid (Aphis gossypii (Glover)); experiment: Test E: control of cotton melon aphid on sprayed okra plant; settings: 144 h, pre-infested, 6 days; for mortality at 50 ppm: sprayed at 50 ppm; for mortality at 10 ppm: sprayed at 10 ppm; for mortality at 250 ppm: sprayed at 250 ppm
Procedure: as §1
For evaluating control of cotton melon aphid (Aphis gossypii (Glover)) through contact and/or systemic means, the test unit consisted of a small open container with a 5-day-old okra plant inside. This was pre-infested with 30-40 insects on a piece of leaf according to the cut-leaf method, and the soil of the test unit was covered with a layer of sand.
Test compounds were formulated and sprayed at 250, 50, 10 and 2 ppm. After spraying, the test units were maintained in a growth chamber for 6 days at 19° C. and 70% relative humidity. Each test unit was then visually assessed for insect mortality.

[4] = tested on: silverleaf whitefly (Bemisia argentifolii (Bellows and Perring)); experiment: Test F: control of silverleaf whitefly on sprayed soybean plant; settings: 288 h, pre-infested (oviposition), 12 days; for mortality at 50 ppm: sprayed at 50 ppm; for mortality at 250 ppm: sprayed at 250 ppm
Procedure: as §1
For evaluating control of silverleaf whitefly (Bemisia argentifolii (Bellows and Perring)) through contact and/or systemic means, each test unit consisted of a small open container with a 5-7 day old soybean plant inside. This was pre-infested by placing test units into cages containing adult whiteflies so that oviposition on the leaves could occur. The adults were removed from the plants with an air-blast nozzle, and the test units were capped. The test units were then stored 2 to 3 days before spraying.
Test compounds were formulated and sprayed at 250 and 50 ppm. After spraying, the test units were maintained in a growth chamber for 12 days at 23° C. and 70% relative humidity. Each test unit was then visually assessed for insect mortality.

Compound	mortality at 50 ppm [1] [%]	mortality at 50 ppm [3] [%]	mortality at 250 ppm [1] [%]	mortality at 250 ppm [3] [%]	other results
CCC#CCn1cc(-c2cccc(C(F)(F)F)c2)nn1 [Compound 3, 1-(2-Pentyn-1-yl)-4-[3-(trifluoromethyl)phenyl]-1H-1,2,3-triazole]	≥ 80	–	–	–	–
CCC#CCn1nnc(-c2ccc(Cl)cc2)n1 [Compound 60, 5-(4-chlorophenyl)-2-(pent-2-yn-1-yl)-1,2,3,4-tetrazole]	–	≥ 80	–	–	mortality at 250 ppm [2]: ≥ 80%
CCC#CCn1nnc(-c2ccc(C(F)(F)F)cc2)n1 [Compound 64, 2-(2-Pentyn-1-yl)-5-[4-(trifluoromethyl)phenyl]-2H-tetrazole]	–	–	–	–	mortality at 50 ppm [2]: ≥ 80%; mortality at 10 ppm [1]: ≥ 80%; mortality at 10 ppm [3]: ≥ 80%
CCC#CCn1cc(-c2ccccc2)cn1 [Compound 114]	–	–	≥ 80	≥ 80	–
CCC#CCn1nnc(-c2ccc(C(F)(F)F)cn2)n1 [Compound 122]	–	–	≥ 80	–	–
CCC#CCn1cc(-c2ccc(C(F)(F)F)cn2)nn1 [Compound 123, 2-[1-(2-Pentyn-1-yl)-1H-1,2,3-triazol-4-yl]-5-(trifluoromethyl)pyridine]	≥ 80	≥ 80	–	–	–
CCC#CCn1ncc(-c2ccc(C(F)(F)F)cn2)n1 [Compound 124, 2-[2-(2-Pentyn-1-yl)-2H-1,2,3-triazol-4-yl]-5-(trifluoromethyl)pyridine]	≥ 80	≥ 80	–	–	mortality at 50 ppm [2]: ≥ 80%
CCC#CCn1cc(-c2ccc(C(F)(F)F)nc2)nn1 [Compound 125]	–	–	≥ 80	–	–
CCC#CCn1ncc(-c2ccc(C(F)(F)F)nc2)n1 [Compound 126, 5-[2-(2-Pentyn-1-yl)-2H-1,2,3-triazol-4-yl]-2-(trifluoromethyl)pyridine]	–	–	–	–	mortality at 50 ppm [2]: ≥ 80%; mortality at 10 ppm [1]: ≥ 80%; mortality at 10 ppm [3]: ≥ 80%
CCC#CCn1nnc(-c2ccsc2)n1 [Compound 129]	–	–	–	≥ 80	–
CCC#CCn1nnc(-c2cccs2)n1 [Compound 130]	–	–	–	≥ 80	–
CCC#CCn1ncc(-c2ccc(Cl)cn2)n1 [Compound 141]	–	–	–	≥ 80	mortality at 250 ppm [2]: ≥ 80%; mortality at 50 ppm [4]: ≥ 50%
CCC#CCn1cc(-c2ccc(F)cn2)nn1 [Compound 149]	≥ 80	–	–	≥ 80	–
CCC#CCn1ncc(-c2ccc(F)cn2)n1 [Compound 150]	≥ 80	≥ 80	–	–	mortality at 250 ppm [2]: ≥ 80%
CCC#CCn1cc(-c2cncc(F)c2)nn1 [Compound 154]	–	–	≥ 80	≥ 80	–
CCC#CCn1cc(-c2ccc(Cl)nc2)nn1 [Compound 156]	–	–	–	≥ 80	–
CCC#CCn1nnc(-c2ccc3ccccc3c2)n1 [Compound 168]	≥ 80	≥ 80	–	–	–
CCC#CCn1nnc(-c2cnc3ccccc3c2)n1 [Compound 169]	–	≥ 80	≥ 80	–	–
CCC#CCn1ncc(-c2cc(F)cc(C#N)c2)n1 [Compound 175, 3-Fluoro-5-[2-(2-pentyn-1-yl)-2H-1,2,3-triazol-4-yl]benzonitrile]	≥ 80	≥ 80	–	–	–
CCC#CCn1nnc(-c2cc(C(F)(F)F)ccn2)n1 [Compound 177]	–	≥ 80	–	–	–
CCC#CCn1nnc(-c2ccnc(C(F)(F)F)c2)n1 [Compound 188]	–	≥ 80	–	≥ 80	mortality at 250 ppm [2]: ≥ 80%; mortality at 10 ppm [1]: ≥ 80%
CCC#CCn1nnc(-c2cc3ccccc3o2)n1 [Compound 194]	–	≥ 80	≥ 80	–	–
CCC#CCn1ncc(-c2ccnc(C(F)(F)F)c2)n1 [Compound 197]	≥ 80	≥ 80	–	–	–
CCC#CCn1cc(-c2ccnc(C(F)(F)F)c2)nn1 [Compound 198]	–	–	≥ 80	≥ 80	–
CCC#CCn1ncc(-c2cc(C(F)(F)F)ccn2)n1 [Compound 203]	–	≥ 80	≥ 80	–	mortality at 250 ppm [2]: ≥ 80%

Compound	mortality at 50 ppm [1] [%]	mortality at 50 ppm [3] [%]	mortality at 250 ppm [1] [%]	mortality at 250 ppm [3] [%]	other results
CCC#CCn1ncc(-c2cncc(C(F)(F)F)c2)n1 [Compound 204, 3-[2-(2-Pentyn-1-yl)-2H-1,2,3-triazol-4-yl]-5-(trifluoromethyl)pyridine]	≥ 80	–	–	–	mortality at 50 ppm [2]: ≥ 80%; mortality at 10 ppm [3]: ≥ 80%
CCC#CCn1cc(-c2cncc(C(F)(F)F)c2)nn1 [Compound 205]	–	–	≥ 80	≥ 80	–
CCC#CCn1cc(-c2ccc(OC(F)(F)F)nc2)nn1 [Compound 206]	–	–	≥ 80	–	–
CCC#CCn1ncc(-c2ccc(OC(F)(F)F)nc2)n1 [Compound 207, 5-[2-(2-Pentyn-1-yl)-2H-1,2,3-triazol-4-yl]-2-(trifluoromethoxy)pyridine]	≥ 80	≥ 80	–	–	mortality at 50 ppm [2]: ≥ 80%
CCC#CCn1cc(-c2cc(C(F)(F)F)ccn2)nn1 [Compound 208]	≥ 80	–	–	≥ 80	–
CCC#CCn1cc(-c2cccc(C(F)(F)F)n2)nn1 [Compound 212]	–	–	≥ 80	–	–
CCC#CCn1ncc(-c2cccc(C(F)(F)F)n2)n1 [Compound 213]	–	≥ 80	≥ 80	–	mortality at 250 ppm [2]: ≥ 80%
CCC#CCn1ncc(-c2ccnc(C#N)c2)n1 [Compound 219]	–	≥ 80	–	–	–
CCC#CCn1nnc(-c2ccnc(C#N)c2)n1 [Compound 222]	–	≥ 80	–	–	–
CCC#CCn1nnc(-c2cc(OC)ccn2)n1 [Compound 223]	–	–	–	≥ 80	–
CCC#CCn1ncc(-c2cncc(C#N)c2)n1 [Compound 232]	–	≥ 80	–	–	–
CCC#CCn1cc(-c2cncc(C#N)c2)nn1 [Compound 233]	–	–	–	≥ 80	–
CCC#CCn1ncc(-c2cc(OC)ccn2)n1 [Compound 234]	–	–	–	≥ 80	–
CCC#CCn1nnc(-c2ccnc(OC)c2)n1 [Compound 236, 2-Methoxy-4-[2-(2-pentyn-1-yl)-2H-tetrazol-5-yl]pyridine]	≥ 80	≥ 80	–	–	mortality at 250 ppm [2]: ≥ 80%
CCC#CCn1ncc(-c2cccc(OC)n2)n1 [Compound 237]	≥ 80	–	–	≥ 80	–
CCC#CCn1cc(-c2cccc(C#N)n2)nn1 [Compound 249]	–	–	–	≥ 80	–
CCC#CCn1ncc(-c2cccc(C#N)n2)n1 [Compound 250]	≥ 80	≥ 80	–	–	–
CCC#CCn1nnc(-c2cccc(OC)n2)n1 [Compound 251]	–	–	≥ 80	≥ 80	–
CCC#CCn1ncc(-c2cncc(OC)c2)n1 [Compound 252]	–	–	–	≥ 80	–
CCC#CCn1cc(-c2cncc(OC)c2)nn1 [Compound 255]	–	–	≥ 80	–	–
CCC#CCn1nnc(-c2cc(OC)cc(C(F)(F)F)c2)n1 [Compound 286, 5-[3-Methoxy-5-(trifluoromethyl)phenyl]-2-(2-pentyn-1-yl)-2H-tetrazole]	–	≥ 80	≥ 80	–	mortality at 50 ppm [4]: ≥ 50%
COCC#CCn1ncc(-c2ccc(C(F)(F)F)cc2)n1 [Compound 299]	–	–	–	–	mortality at 250 ppm [4]: ≥ 50%
COCC#CCn1nnc(-c2ccc(C(F)(F)F)cc2)n1 [Compound 300]	–	–	–	≥ 80	mortality at 250 ppm [4]: ≥ 50%
CCC#CCn1nnc(-c2cc(C#N)ccn2)n1 [Compound 303]	–	–	–	≥ 80	–
CCC#CCn1nnc(-c2ccc(OC(F)F)cc2)n1 [Compound 311, 5-[4-(Difluoromethoxy)phenyl]-2-(2-pentyn-1-yl)-2H-tetrazole]	≥ 80	≥ 80	–	–	mortality at 50 ppm [4]: ≥ 50%
